Source: paper PMC10208040, “Computational docking and in vitro analysis identifies novel arylidene analogue FPMXY-14 against renal cancer cells by attenuating Akt” (Oncology Research, 2021)

Target: T1, Akt
T1 construct: gene AKT1
Test: Z'-LYTE fluorescence-based coupled-enzyme kinase assay
Type: biochemical

IC50: 148 nM
SMILES: Cc1ccc(C)c2c1CC(=Cc1ccc(C(C)C)cc1)C2=O [FPMXY-14, 2-(4-isopropyl-benzylidene)-4,7-dimethyl-indan-1-one]
